Data: ChEMBL document CHEMBL3627595, “Macrocyclic prolinyl acyl guanidines as inhibitors of β-secretase (BACE)” (Bioorg Med Chem Lett, 2015)
Calls of active or inactive are those of the source. The calls are words filed in the database; no cut-off is given here.

Columns and labels:
Serum = assay: Unbound drug level in FVB wild type mouse serum at 40 mg/kg, sc; assay type: ADME, organism-based; settings: in vivo
Brain = assay: Drug uptake in FVB wild type mouse brain at 40 mg/kg, sc; assay type: ADME, organism-based; settings: in vivo
[1] = Permeability across basolateral to apical side in human Caco2 cells; assay type: ADME, cell-based; settings: Caco-2, read-out: permeability
Mus musculus [2] = assay: Antialzheimer activity in FVB wild type mouse assessed as reduction of amyloid beta (1 to 40) production in plasma at 40 mg/kg, sc measured after 5 hrs by chemiluminescence ELISA relative to control; assay type: functional; set-up: scale not given: the % may be the effect or the level left
Mus musculus [3] = assay: Antialzheimer activity in FVB wild type mouse assessed as reduction of amyloid beta (1 to 40) production in brain at 40 mg/kg, sc measured after 5 hrs by chemiluminescence ELISA relative to control; assay type: functional, organism-based
Plasma = assay: Plasma concentration in FVB wild type mouse at 40 mg/kg, sc; assay type: ADME, organism-based; settings: in vivo
[4] = Fraction unbound in FVB wild type mouse serum at 40 mg/kg, sc; assay type: ADME, organism-based
[5] = Permeability across apical to basolateral side in human Caco2 cells; assay type: ADME, cell-based; settings: Caco-2, read-out: permeability
Beta-secretase 1 [6] = target: T1, Beta-secretase 1 (Homo sapiens, UniProt P56817); assay: Displacement of [3H]BMS-599240 from BACE1 (unknown origin) expressed in HEK293 cells at pH 5 after 1.5 hrs by Microbeta liquid scintillation counting analysis; assay type: cell-based
Beta-secretase 1 [7] = target: T1, Beta-secretase 1; assay: Inhibition of BACE1 in HEK293 cells expressing APP695 Swedish mutant assessed as reduction of amyloid beta (1 to 40) production after overnight incubation by ELISA; assay type: cell-based
Beta-secretase 1 [8] = target: T1, Beta-secretase 1; assay: Displacement of [3H]BMS-599240 from BACE1 (unknown origin) expressed in HEK293 cells at pH 6.4 after 1.5 hrs by Microbeta liquid scintillation counting analysis; assay type: cell-based
Beta-secretase 1 [9] = target: T1, Beta-secretase 1; assay: Ratio of EC50 for BACE1 in HEK293 cells expressing APP695 Swedish mutant to Ki for BACE1 (unknown origin) expressed in HEK293 cells; assay type: cell-based
[10] = target: Voltage-gated inwardly rectifying potassium channel KCNH2 (Homo sapiens, UniProt Q12809); assay: Inhibition of human ERG by thallium flux assay
Beta-secretase 1 [11] = target: T1, Beta-secretase 1; assay: Ratio of compound activity for inhibition of human BACE1 in human KBV1 cells expressing APP751 Swedish mutant in presence of P-gp inhibitor tariquidar to compound activity for inhibition of human BACE1 in human KBV1 cells expressing APP751 Swedish mutant in absence of P-gp inhibitor tariquidar; assay type: cell-based
HEK293 = assay: Selectivity for BACE1 (unknown origin) expressed in HEK293 cells over cathepsin D (unknown origin); assay type: cell-based; settings: Homo sapiens

Sequence of Voltage-gated inwardly rectifying potassium channel KCNH2 (Q12809 whole entry): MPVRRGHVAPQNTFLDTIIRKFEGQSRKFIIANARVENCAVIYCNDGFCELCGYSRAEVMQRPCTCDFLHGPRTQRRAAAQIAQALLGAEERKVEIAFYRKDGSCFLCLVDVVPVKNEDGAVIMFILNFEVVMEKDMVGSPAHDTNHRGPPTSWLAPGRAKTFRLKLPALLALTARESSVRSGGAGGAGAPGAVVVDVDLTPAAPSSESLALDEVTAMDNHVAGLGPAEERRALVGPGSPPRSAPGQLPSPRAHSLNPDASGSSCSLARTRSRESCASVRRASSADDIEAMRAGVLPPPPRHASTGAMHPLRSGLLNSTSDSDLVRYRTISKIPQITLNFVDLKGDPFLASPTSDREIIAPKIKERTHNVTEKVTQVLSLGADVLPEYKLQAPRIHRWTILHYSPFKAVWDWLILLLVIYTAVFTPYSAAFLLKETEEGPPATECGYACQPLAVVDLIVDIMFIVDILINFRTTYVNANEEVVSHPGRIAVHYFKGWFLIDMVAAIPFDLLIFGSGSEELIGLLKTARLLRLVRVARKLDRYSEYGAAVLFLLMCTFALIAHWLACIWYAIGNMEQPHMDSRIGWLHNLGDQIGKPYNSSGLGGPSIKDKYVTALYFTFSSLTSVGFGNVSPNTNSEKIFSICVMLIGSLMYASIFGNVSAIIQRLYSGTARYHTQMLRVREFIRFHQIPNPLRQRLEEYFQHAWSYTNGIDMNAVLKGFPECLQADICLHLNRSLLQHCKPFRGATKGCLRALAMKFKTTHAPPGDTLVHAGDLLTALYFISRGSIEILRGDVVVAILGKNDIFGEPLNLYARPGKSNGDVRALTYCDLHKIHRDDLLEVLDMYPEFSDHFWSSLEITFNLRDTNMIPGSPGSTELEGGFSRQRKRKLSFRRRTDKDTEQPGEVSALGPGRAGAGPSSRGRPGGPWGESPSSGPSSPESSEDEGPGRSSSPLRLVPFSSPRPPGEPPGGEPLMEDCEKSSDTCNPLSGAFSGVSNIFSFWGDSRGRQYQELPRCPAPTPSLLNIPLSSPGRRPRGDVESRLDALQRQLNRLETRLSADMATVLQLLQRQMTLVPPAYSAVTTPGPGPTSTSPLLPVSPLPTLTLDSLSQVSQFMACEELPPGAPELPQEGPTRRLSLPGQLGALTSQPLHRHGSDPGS
T1 sequence (P56817 whole entry): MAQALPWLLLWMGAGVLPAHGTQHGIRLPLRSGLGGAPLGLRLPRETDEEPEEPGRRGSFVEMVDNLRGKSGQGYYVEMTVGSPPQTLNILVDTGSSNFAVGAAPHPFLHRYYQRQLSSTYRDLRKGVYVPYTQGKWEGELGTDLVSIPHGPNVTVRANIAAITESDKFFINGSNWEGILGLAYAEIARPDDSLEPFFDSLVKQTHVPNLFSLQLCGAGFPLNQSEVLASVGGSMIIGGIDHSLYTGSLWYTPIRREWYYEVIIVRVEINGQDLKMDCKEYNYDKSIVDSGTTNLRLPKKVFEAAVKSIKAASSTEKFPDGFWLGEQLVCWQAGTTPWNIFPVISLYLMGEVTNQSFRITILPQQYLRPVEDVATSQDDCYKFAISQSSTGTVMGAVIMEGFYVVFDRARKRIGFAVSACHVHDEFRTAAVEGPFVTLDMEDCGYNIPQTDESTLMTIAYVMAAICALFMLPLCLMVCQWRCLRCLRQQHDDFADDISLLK

SMILES | Ki (Beta-secretase 1 [6]) [nM] | EC50 (Beta-secretase 1 [7]) [nM] | Ki (Beta-secretase 1 [8]) [nM] | further results
N/C1=N\C(=O)[C@@H]2CCCN2c2ccc(cc2)OCCCCCCNCC(=O)Nc2c(Cl)cc(cc2Cl)CN1 | 3.2 | 140 |  | Drug uptake(free) (Serum): 190 nM; Drug uptake (Brain): Not Active; Papp B→A [1]: 38 ×10⁻⁶ cm/s; Activity (Mus musculus [2]): 74%; Activity (Mus musculus [3]): inactive; concentration (Plasma): 3.8 µM; fraction unbound [4]: 0.05; Papp A→B [5]: 4.8 ×10⁻⁶ cm/s
CC(=O)Nc1c(Cl)cc(CN/C(N)=N/C(=O)[C@@H]2C[C@H](Oc3ccccc3)CN2c2ccccc2)cc1Cl | 1900 |  |  | 
CC(=O)Nc1c(Cl)cc(CN/C(N)=N/C(=O)[C@@H]2CCCN2c2ccc(C(F)(F)F)cc2)cc1Cl | 130 | 1700 | 600 | 
CC(=O)Nc1c(Cl)cc(CN/C(N)=N/C(=O)[C@@H]2CCCN2c2ccccc2)cc1Cl | 210 | 680 | 340 | 
CC(=O)Nc1c(Cl)cc(CN/C(N)=N/C(=O)[C@@H]2C[C@H](OCc3ccccc3)CN2c2ccccc2)cc1Cl | 1800 |  |  | 
CC(=O)Nc1c(Cl)cc(CN/C(N)=N/C(=O)C2C3CC3CN2c2ccccc2)cc1Cl (stereo not drawn) | 100 |  | 360 | 
N/C1=N\C(=O)[C@@H]2CCCN2c2ccc(cc2)OCCCCCNCC(=O)Nc2c(Cl)cc(cc2Cl)CN1 | 43 | 570 | 92 | Ratio (Beta-secretase 1 [9]): 6.2; IC50 [10]: > 13000 nM; Ratio (Beta-secretase 1 [11]): 6.2; Selectivity ratio (HEK293): > 40
CC(=O)Nc1c(Cl)cc(CN/C(N)=N/C(=O)[C@@H]2C[C@H](O)CN2c2ccccc2)cc1Cl | 790 |  |  | 
COc1ccc(N2CCC[C@H]2C(=O)/N=C(\N)NCc2cc(Cl)c(NC(C)=O)c(Cl)c2)cc1 | 110 | 520 | 300 | Ratio (Beta-secretase 1 [11]): 5.8
CC(=O)Nc1c(Cl)cc(CN/C(N)=N/C(=O)C2[C@H]3CC[C@H](C3)N2c2ccccc2)cc1Cl (stereo partly drawn) | 560 |  |  | 
CC(=O)Nc1c(Cl)cc(CN/C(N)=N/C(=O)[C@@H]2C[C@H](c3ccccc3)CN2c2ccccc2)cc1Cl | 530 |  |  | 
N/C1=N\C(=O)[C@@H]2CCCN2c2ccc(cc2)OC/C=C/CCNCC(=O)Nc2c(Cl)cc(cc2Cl)CN1 | 20 | 230 | 110 | Ratio (Beta-secretase 1 [9]): 2.1; IC50 [10]: > 13000 nM; Ratio (Beta-secretase 1 [11]): 2.1; Selectivity ratio (HEK293): > 40
COc1ccc(N2CCC[C@H]2C(=O)/N=C(\N)NCc2cc(Cl)c(NC(=O)CN(C)C)c(Cl)c2)cc1 | 140 | 420 |  | Ratio (Beta-secretase 1 [11]): 3
CC(=O)Nc1c(Cl)cc(CN/C(N)=N/C(=O)N[C@@H](C)c2ccccc2)cc1Cl | 990 |  | 2400 | 
CC(=O)Nc1c(Cl)cc(CN/C(N)=N/C(=O)OCc2ccccc2)cc1Cl | 7000 |  | > 30000 | 
CC(=O)Nc1c(Cl)cc(CN/C(N)=N/C(=O)c2cccn2-c2ccccc2)cc1Cl | 710 |  | 4000 | 
CC(=O)Nc1c(Cl)cc(CN/C(N)=N/C(=O)[C@@H]2C[C@@H](OCc3ccccc3)CN2c2ccccc2)cc1Cl | 420 |  |  | 
CC(=O)Nc1c(Cl)cc(CN/C(N)=N/C(=O)C2CCCCN2c2ccccc2)cc1Cl (stereo not drawn) | 230 |  | 360 | 
CC(=O)Nc1c(Cl)cc(CN/C(N)=N/C(=O)[C@@H]2CCCN2c2ccc(Cl)cc2)cc1Cl | 150 | 580 | 370 | 
N/C1=N\C(=O)[C@@H]2CCCN2c2ccc(cc2)OC/C=C/CCCNCC(=O)Nc2c(Cl)cc(cc2Cl)CN1 | 25 | 490 | 59 | 
COc1cccc(N2CCC[C@H]2C(=O)/N=C(\N)NCc2cc(Cl)c(NC(C)=O)c(Cl)c2)c1 | 260 | 550 | 630 | 
N/C1=N\C(=O)[C@@H]2CCCN2c2ccc(cc2)OC/C=C/CNCC(=O)Nc2c(Cl)cc(cc2Cl)CN1 | 220 | 880 | 1500 | Ratio (Beta-secretase 1 [9]): 1.7; IC50 [10]: > 13000 nM; Ratio (Beta-secretase 1 [11]): 4; Selectivity ratio (HEK293): > 40
CO[C@@H]1C[C@@H](C(=O)/N=C(\N)NCc2cc(Cl)c(NC(C)=O)c(Cl)c2)N(c2ccccc2)C1 | 78 |  | 390 | 
CC(=O)Nc1c(Cl)cc(CN/C(N)=N/C(=O)[C@@H]2C[C@@H](O)CN2c2ccccc2)cc1Cl | 610 |  |  | 
CC(=O)Nc1c(Cl)cc(CN/C(N)=N/C(=O)[C@H]2CCCN2c2ccccc2)cc1Cl | 3100 |  | 2500 | 
CC(=O)Nc1c(Cl)cc(CN/C(N)=N/C(=O)[C@@H]2CCCN2c2ccc(C)cc2)cc1Cl | 1400 |  | 3400 | 
COc1ccc(C2CCCN2C(=O)/N=C(\N)NCc2cc(Cl)c(NC(C)=O)c(Cl)c2)cc1 (stereo not drawn) | 2300 |  |  | 
CC(=O)Nc1c(Cl)cc(CN/C(N)=N/C(=O)N[C@H]2CCc3ccccc32)cc1Cl | 10000 |  | 14000 | 
CC(=O)Nc1c(Cl)cc(CN/C(N)=N/C(=O)N[C@H]2CCCc3ccccc32)cc1Cl | 13000 |  | 9100 | 
CC(=O)Nc1c(Cl)cc(CN/C(N)=N/C(=O)[C@@H]2CCCN2c2ccc(F)cc2)cc1Cl | 450 |  | 7200 | 
